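Method: 48-hour compound exposure of cells in 96-well plates, five concentrations, linear interpolation of endpoints. GI50 is the concentration that inhibits growth by half.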 Activity calls are given as the source filed them. Rule as the data show it: active = GI50 up to about 1.1 µM and inactive = higher.
Columns and labels:
Assay in all cases: NCI-60 cell line screen, 48 h
T47D = tested on: T47D
HT-29 = tested on: HT-29
MOLT-4 = tested on: MOLT-4
NCI-H460 = tested on: NCI-H460
Malme-3M = tested on: Malme-3M
UACC-62 = tested on: UACC-62
U-251 = tested on: U-251
SNB-19 = tested on: SNB-19
OVCAR-4 = tested on: OVCAR-4
HCT-116 = tested on: HCT-116
Hs-578T = tested on: Hs-578T
SK-MEL-28 = tested on: SK-MEL-28
NCI-H522 = tested on: NCI-H522
LOX IMVI = tested on: LOX IMVI
K562 = tested on: K562
CCRF-CEM = tested on: CCRF-CEM
IGROV-1 = tested on: IGROV-1
MCF7 = tested on: MCF7
SF-539 = tested on: SF-539
SW-620 = tested on: SW-620

Compound: COCC#C[C@@]1(O)CCCCC1CC(OC)OC (stereo not given in full)
- GI50 (T47D): > 100 µM (inactive)
- GI50 (HT-29): > 100 µM (inactive)
- GI50 (MOLT-4): 42.7 µM (inactive)
- GI50 (NCI-H460): > 100 µM (inactive)
- GI50 (Malme-3M): 64.9 µM (inactive)
- GI50 (UACC-62): 34.9 µM (inactive)
- GI50 (U-251): > 100 µM (inactive)
- GI50 (SNB-19): > 100 µM (inactive)
- GI50 (OVCAR-4): 50.4 µM (inactive)
- GI50 (HCT-116): 81.8 µM (inactive)
- GI50 (Hs-578T): > 100 µM (inactive)
- GI50 (SK-MEL-28): > 100 µM (inactive)
- GI50 (NCI-H522): 24.7 µM (inactive)
- GI50 (LOX IMVI): 48 µM (inactive)
- GI50 (K562): 49.7 µM (inactive)
- GI50 (CCRF-CEM): 38.5 µM (inactive)
- GI50 (IGROV-1): 48.1 µM (inactive)
- GI50 (MCF7): 60 µM (inactive)

Compound: OC1c2ccccc2C(O)C2OC12 (stereo not given)
- GI50 (T47D): > 100 µM (inactive)
- GI50 (HT-29): > 100 µM (inactive)
- GI50 (MOLT-4): > 100 µM (inactive)
- GI50 (NCI-H460): > 100 µM (inactive)
- GI50 (Malme-3M): > 100 µM (inactive)
- GI50 (SF-539): > 100 µM (inactive)
- GI50 (UACC-62): > 100 µM (inactive)
- GI50 (U-251): > 100 µM (inactive)
- GI50 (SNB-19): > 100 µM (inactive)
- GI50 (OVCAR-4): > 100 µM (inactive)
- GI50 (HCT-116): > 100 µM (inactive)
- GI50 (SK-MEL-28): > 100 µM (inactive)
- GI50 (SW-620): > 100 µM (inactive)
- GI50 (NCI-H522): > 100 µM (inactive)
- GI50 (LOX IMVI): > 100 µM (inactive)
- GI50 (K562): > 100 µM (inactive)
- GI50 (CCRF-CEM): > 100 µM (inactive)
- GI50 (IGROV-1): > 100 µM (inactive)
- GI50 (MCF7): > 100 µM (inactive)

Compound: Cn1c(=O)c2c(nc3n2CC(=O)N3CCCCl)n(C)c1=O
- GI50 (T47D): > 100 µM (inactive)
- GI50 (HT-29): > 100 µM (inactive)
- GI50 (MOLT-4): 83.8 µM (inactive)
- GI50 (NCI-H460): > 100 µM (inactive)
- GI50 (UACC-62): > 100 µM (inactive)
- GI50 (U-251): > 100 µM (inactive)
- GI50 (SNB-19): > 100 µM (inactive)
- GI50 (OVCAR-4): > 100 µM (inactive)
- GI50 (HCT-116): > 100 µM (inactive)
- GI50 (Hs-578T): > 100 µM (inactive)
- GI50 (SK-MEL-28): > 100 µM (inactive)
- GI50 (SW-620): > 100 µM (inactive)
- GI50 (LOX IMVI): > 100 µM (inactive)
- GI50 (K562): > 100 µM (inactive)
- GI50 (CCRF-CEM): > 100 µM (inactive)
- GI50 (IGROV-1): > 100 µM (inactive)
- GI50 (MCF7): > 100 µM (inactive)

Compound: CC1=NN(c2cccc(Cl)c2)C2(C1)C(Cl)C(=O)N2c1nc2ccccc2s1 (stereo not given)
- GI50 (T47D): 26.2 µM (inactive)
- GI50 (HT-29): 33.6 µM (inactive)
- GI50 (MOLT-4): 14.5 µM (inactive)
- GI50 (NCI-H460): 36.6 µM (inactive)
- GI50 (Malme-3M): 30.5 µM (inactive)
- GI50 (UACC-62): 31.1 µM (inactive)
- GI50 (U-251): 23.9 µM (inactive)
- GI50 (SNB-19): 28.6 µM (inactive)
- GI50 (OVCAR-4): 34.7 µM (inactive)
- GI50 (HCT-116): 19.2 µM (inactive)
- GI50 (Hs-578T): 45.2 µM (inactive)
- GI50 (SW-620): 33.2 µM (inactive)
- GI50 (NCI-H522): 21.8 µM (inactive)
- GI50 (LOX IMVI): 18.7 µM (inactive)
- GI50 (K562): 16.2 µM (inactive)
- GI50 (IGROV-1): 21.8 µM (inactive)
- GI50 (MCF7): 32.1 µM (inactive)

Compound: O=C1NC(=S)NC(=O)C1C(c1ccccc1[N+](=O)[O-])C1C(=O)NC(=S)NC1=O.c1ccncc1
- GI50 (T47D): > 100 µM (inactive)
- GI50 (HT-29): > 100 µM (inactive)
- GI50 (MOLT-4): > 100 µM (inactive)
- GI50 (NCI-H460): > 100 µM (inactive)
- GI50 (Malme-3M): > 100 µM (inactive)
- GI50 (UACC-62): > 100 µM (inactive)
- GI50 (U-251): > 100 µM (inactive)
- GI50 (SNB-19): > 100 µM (inactive)
- GI50 (OVCAR-4): > 100 µM (inactive)
- GI50 (HCT-116): > 100 µM (inactive)
- GI50 (Hs-578T): > 100 µM (inactive)
- GI50 (SK-MEL-28): > 100 µM (inactive)
- GI50 (SW-620): > 100 µM (inactive)
- GI50 (NCI-H522): > 100 µM (inactive)
- GI50 (LOX IMVI): > 100 µM (inactive)
- GI50 (K562): > 100 µM (inactive)
- GI50 (CCRF-CEM): > 100 µM (inactive)
- GI50 (MCF7): > 100 µM (inactive)

Compound: CC1=C(C)C2(C#N)C(=O)N3C(=NC(c4ccco4)NC3c3ccco3)C2(C#N)C(c2ccco2)N1 (stereo not given)
- GI50 (T47D): > 100 µM (inactive)
- GI50 (HT-29): > 100 µM (inactive)
- GI50 (MOLT-4): > 100 µM (inactive)
- GI50 (NCI-H460): > 100 µM (inactive)
- GI50 (Malme-3M): > 100 µM (inactive)
- GI50 (UACC-62): > 100 µM (inactive)
- GI50 (U-251): > 100 µM (inactive)
- GI50 (SNB-19): > 100 µM (inactive)
- GI50 (OVCAR-4): > 100 µM (inactive)
- GI50 (HCT-116): > 100 µM (inactive)
- GI50 (Hs-578T): > 100 µM (inactive)
- GI50 (SK-MEL-28): > 100 µM (inactive)
- GI50 (SW-620): > 100 µM (inactive)
- GI50 (NCI-H522): > 100 µM (inactive)
- GI50 (LOX IMVI): > 100 µM (inactive)
- GI50 (CCRF-CEM): > 100 µM (inactive)
- GI50 (IGROV-1): > 100 µM (inactive)
- GI50 (MCF7): > 100 µM (inactive)

Compound: O=S(=O)(O)c1ccc(O)c(/N=N/c2c(O)ccc3ccccc23)c1
- GI50 (T47D): > 100 µM (inactive)
- GI50 (HT-29): > 100 µM (inactive)
- GI50 (MOLT-4): > 100 µM (inactive)
- GI50 (UACC-62): > 100 µM (inactive)
- GI50 (U-251): 73.6 µM (inactive)
- GI50 (SNB-19): > 100 µM (inactive)
- GI50 (OVCAR-4): > 100 µM (inactive)
- GI50 (HCT-116): > 100 µM (inactive)
- GI50 (Hs-578T): > 100 µM (inactive)
- GI50 (SK-MEL-28): > 100 µM (inactive)
- GI50 (SW-620): > 100 µM (inactive)
- GI50 (NCI-H522): > 100 µM (inactive)
- GI50 (LOX IMVI): > 100 µM (inactive)
- GI50 (K562): > 100 µM (inactive)
- GI50 (CCRF-CEM): 36.6 µM (inactive)
- GI50 (IGROV-1): > 100 µM (inactive)

Compound: C=C1[C@@H](OC(C)=O)[C@H]2[C@@H](OC(C)=O)[C@@](C)(OC(C)=O)C[C@]2(OC(C)=O)C(=O)[C@@H](C)/C=C/C(C)(C)C(=O)C[C@H]1OC(C)=O
- GI50 (T47D): > 100 µM (inactive)
- GI50 (HT-29): 36.6 µM (inactive)
- GI50 (MOLT-4): > 100 µM (inactive)
- GI50 (Malme-3M): > 100 µM (inactive)
- GI50 (SF-539): > 100 µM (inactive)
- GI50 (UACC-62): 83.8 µM (inactive)
- GI50 (U-251): > 100 µM (inactive)
- GI50 (SNB-19): > 100 µM (inactive)
- GI50 (OVCAR-4): 35.2 µM (inactive)
- GI50 (HCT-116): > 100 µM (inactive)
- GI50 (SK-MEL-28): > 100 µM (inactive)
- GI50 (NCI-H522): 45.3 µM (inactive)
- GI50 (LOX IMVI): > 100 µM (inactive)
- GI50 (K562): > 100 µM (inactive)
- GI50 (CCRF-CEM): 60.3 µM (inactive)
- GI50 (IGROV-1): > 100 µM (inactive)
- GI50 (MCF7): > 100 µM (inactive)

Compound: Nc1c([N+](=O)[O-])cc2c3c(cccc13)CC2
- GI50 (T47D): 30.1 µM (inactive)
- GI50 (HT-29): 98.9 µM (inactive)
- GI50 (MOLT-4): 23.6 µM (inactive)
- GI50 (NCI-H460): 54.1 µM (inactive)
- GI50 (SF-539): 31.5 µM (inactive)
- GI50 (UACC-62): 85.1 µM (inactive)
- GI50 (U-251): 91 µM (inactive)
- GI50 (SNB-19): 86.3 µM (inactive)
- GI50 (OVCAR-4): 47.8 µM (inactive)
- GI50 (HCT-116): 39.1 µM (inactive)
- GI50 (Hs-578T): > 100 µM (inactive)
- GI50 (SK-MEL-28): > 100 µM (inactive)
- GI50 (SW-620): 82.2 µM (inactive)
- GI50 (NCI-H522): 93.8 µM (inactive)
- GI50 (LOX IMVI): 65.2 µM (inactive)
- GI50 (K562): > 100 µM (inactive)
- GI50 (CCRF-CEM): 90.6 µM (inactive)
- GI50 (IGROV-1): > 100 µM (inactive)

Compound: Cc1cc(-c2nc3ccccc3s2)ccc1NC(=O)[C@@H](N)CCCCN
- GI50 (T47D): < 0.0247 µM (active)
- GI50 (HT-29): 7.16 µM (inactive)
- GI50 (MOLT-4): 6.58 µM (inactive)
- GI50 (NCI-H460): 2.22 µM (inactive)
- GI50 (Malme-3M): 18.2 µM (inactive)
- GI50 (UACC-62): 13.8 µM (inactive)
- GI50 (U-251): 4.59 µM (inactive)
- GI50 (SNB-19): 12 µM (inactive)
- GI50 (OVCAR-4): 5.87 µM (inactive)
- GI50 (HCT-116): 6.22 µM (inactive)
- GI50 (Hs-578T): 18.5 µM (inactive)
- GI50 (SK-MEL-28): 15.3 µM (inactive)
- GI50 (SW-620): 12.7 µM (inactive)
- GI50 (NCI-H522): 6.75 µM (inactive)
- GI50 (LOX IMVI): 2.03 µM (inactive)
- GI50 (K562): 7.01 µM (inactive)
- GI50 (CCRF-CEM): 6.92 µM (inactive)
- GI50 (IGROV-1): 1.69 µM (inactive)
- GI50 (MCF7): < 0.0301 µM (active)

Compound: COc1cc(NCCC(=O)O)c2ncccc2c1
- GI50 (T47D): > 100 µM (inactive)
- GI50 (HT-29): > 100 µM (inactive)
- GI50 (MOLT-4): > 100 µM (inactive)
- GI50 (NCI-H460): > 100 µM (inactive)
- GI50 (Malme-3M): > 100 µM (inactive)
- GI50 (UACC-62): > 100 µM (inactive)
- GI50 (U-251): > 100 µM (inactive)
- GI50 (SNB-19): > 100 µM (inactive)
- GI50 (OVCAR-4): > 100 µM (inactive)
- GI50 (HCT-116): > 100 µM (inactive)
- GI50 (Hs-578T): 23.9 µM (inactive)
- GI50 (SK-MEL-28): > 100 µM (inactive)
- GI50 (SW-620): > 100 µM (inactive)
- GI50 (NCI-H522): > 100 µM (inactive)
- GI50 (LOX IMVI): > 100 µM (inactive)
- GI50 (K562): > 100 µM (inactive)
- GI50 (CCRF-CEM): > 100 µM (inactive)
- GI50 (IGROV-1): > 100 µM (inactive)

Reference: ChEMBL document CHEMBL1201862, “PubChem BioAssay data set” (2004)
